These results are taken from patent US11596639B2, “Substituted indole Mcl-1 inhibitors” (Vanderbilt University, priority 2016, dated 2023).

Molecules are shown by their SMILES. pKi: −log10 of the molar value. Some results are limits rather than exact numbers.

The target in this experiment is Mcl-1 (Homo sapiens (Human), UniProt Q07820). The experiment can be described thus: Fluorescence polarization anisotropy (FPA) competition assay, FITC-Bak or FITC-Bim BH3 peptide. The experiment is classed as binding. The note with it: read-out: Ki for Inhibition of Mcl-1 by FPA assay.
Sequence of Mcl-1 (Q07820 172-327): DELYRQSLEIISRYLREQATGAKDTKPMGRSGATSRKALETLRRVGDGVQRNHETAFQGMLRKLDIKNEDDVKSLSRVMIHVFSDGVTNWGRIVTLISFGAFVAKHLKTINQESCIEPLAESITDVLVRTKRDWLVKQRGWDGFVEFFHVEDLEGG
As a reminder, the pKi is −log10 of the Ki, conventionally taken in molar units. Consider `Cc1cc(OCCCc2c3n(c4c(-c5c(C)nn(C)c5C)c(Cl)ccc24)[C@H](C)[C@@H](C)N(c2cc(C(=O)O)c4ccn(C)c4c2)C3=O)cc(C)c1Cl` [Example 143, 6-((3R,4R)-7-chloro-10-(3-(4-chloro-3,5-dimethylphenoxy)propyl)-3,4-dimethyl-1-oxo-6-(1,3,5-trimethyl-1H-pyrazol-4-yl)-3,4-dihydropyrazino[1,2-a]indol-2(1H)-yl)-1-methyl-1H-indole-4-carboxylic acid], for which the pKi was 8.12. For `Cc1cc(OCCCc2c3n(c4c(-c5c(C)nn(C)c5C)c(Cl)ccc24)[C@H](C)CN(c2cn(C)c4cc(C(F)(F)F)ccc24)C3=O)cc(C)c1Cl` [Example 199, (4R)-7-chloro-10-[3-(4-chloro-3,5-dimethyl-phenoxy)propyl]-4-methyl-2-[1-methyl-6-(trifluoromethyl)indol-3-yl]-6-(1,3,5-trimethylpyrazol-4-yl)-3,4-dihydropyrazino[1,2-a]indol-1-one], the pKi was 7.92. The result for `COC(=O)c1cn(C)c2c(N3C[C@@H](C)n4c(c(CCCOc5cc(C)c(Cl)c(C)c5)c5ccc(Cl)c(-c6c(C)nn(C)c6C)c54)C3=O)cccc12` [Example 205, Methyl (R)-7-(7-chloro-10-(3-(4-chloro-3,5-dimethylphenoxy)propyl)-4-methyl-1-oxo-6-(1,3,5-trimethyl-1H-pyrazol-4-yl)-3,4-dihydropyrazino[1,2-a]indol-2(1H)-yl)-1-methyl-1H-indole-3-carboxylate] reads 8.62; that for `COC(=O)c1ccc2c(c1)c(N1C[C@@H](C)n3c(c(CCCOc4cc(C)c(Cl)c(C)c4)c4ccc(Cl)c(-c5c(C)nn(C)c5C)c43)C1=O)cn2COCC[Si](C)(C)C` [Example 243, Methyl (R)-3-(7-chloro-10-(3-(4-chloro-3,5-dimethylphenoxy)propyl)-4-methyl-1-oxo-6-(1,3,5-trimethyl-1H-pyrazol-4-yl)-3,4-dihydropyrazino[1,2-a]indol-2(1H)-yl)-1-((2-(trimethylsilyl)ethoxy)methyl)-1H-indole-5-carboxylate], 7.35; that for `Cc1cc(OCCCc2c3n(c4c(-c5c(C)ncnc5C)c(Cl)ccc24)[C@H](C)CN(c2cccc4cccc(C(=O)O)c24)C3=O)cc(C)c1Cl` [Example 255, 8-[(4R)-7-chloro-10-[3-(4-chloro-3,5-dimethyl-phenoxy)propyl]-6-(4,6-dimethylpyrimidin-5-yl)-4-methyl-1-oxo-3,4-dihydropyrazino[1,2-a]indol-2-yl]naphthalene-1-carboxylic acid], 8.89. Under `Cc1cc(OCCCc2c3n(c4c(-c5c(C)nn(C)c5C)c(Cl)ccc24)[C@H](C)CN(c2cccc4c2cc(C(N)=O)n4C)C3=O)cc(C)c1Cl` [Example 266, 4-[(4R)-7-chloro-10-[3-(4-chloro-3,5-dimethyl-phenoxy)propyl]-4-methyl-1-oxo-6-(1,3,5-trimethylpyrazol-4-yl)-3,4-dihydropyrazino[1,2-a]indol-2-yl]-1-methyl-indole-2-carboxamide] stands 8.04.

As for `Cc1cc(OCCCc2c3n(c4c(-c5c(C)nn(C)c5C)c(Cl)ccc24)[C@H](C)CN(c2cc(O)cc4c2cc(C(=O)O)n4C)C3=O)cc(C)c1Cl` [Example 303, (P, R)-4-(7-chloro-10-(3-(4-chloro-3,5-dimethylphenoxy)propyl)-4-methyl-1-oxo-6-(1,3,5-trimethyl-1H-pyrazol-4-yl)-3,4-dihydropyrazino[1,2-a]indol-2(1H)-yl)-6-hydroxy-1-methyl-1H-indole-2-carboxylic acid], the pKi was over 9.00. Regarding `Cc1cc(OCCCc2c3n(c4c(-c5c(C)nn(C)c5C)c(Cl)ccc24)[C@H](C)CN(c2ccc(OCC4CCN(C)C4)c4c2cc(C(=O)O)n4C)C3=O)cc(C)c1Cl` (some centres unmarked) [Example 319, 4-((M, R)-7-Chloro-10-(3-(4-chloro-3,5-dimethylphenoxy)propyl)-4-methyl-1-oxo-6-(1,3,5-trimethyl-1H-pyrazol-4-yl)-3,4-dihydropyrazino[1,2-a]indol-2(1H)-yl)-1-methyl-7-((1-methylpyrrolidin-3-yl)methoxy)-1H-indole-2-carboxylic acid], the pKi is 8.49. As for `Cc1cc(OCCCc2c3n(c4c(-c5c(C)nn(C)c5C)c(Cl)ccc24)[C@H](C)CN(c2cccc4cc(C(=O)O)n(CC5CCN(C)C5)c24)C3=O)cc(C)c1Cl` (stereo partly drawn) [Example 320, 7-((R)-7-Chloro-10-(3-(4-chloro-3,5-dimethylphenoxy)propyl)-4-methyl-1-oxo-6-(1,3,5-trimethyl-1H-pyrazol-4-yl)-3,4-dihydropyrazino[1,2-a]indol-2(1H)-yl)-1-((1-methylpyrrolidin-3-yl)methyl)-1H-indole-2-carboxylic acid], the pKi is 8.57. For the compound `COc1ccc(N2C[C@@H](C)n3c(c(CCCOc4cc(C)c(Cl)c(C)c4)c4ccc(Cl)c(-c5c(C)nn(C)c5C)c43)C2=O)c2c1c(C)c(C(=O)O)n2C` [Example 351, (R)-7-(7-Chloro-10-(3-(4-chloro-3,5-dimethylphenoxy)propyl)-4-methyl-1-oxo-6-(1,3,5-trimethyl-1H-pyrazol-4-yl)-3,4-dihydropyrazino[1,2-a]indol-2(1H)-yl)-4-methoxy-1,3-dimethyl-1H-indole-2-carboxylic acid], the negative-log Ki (pKi) was over 9.00. For the compound `Cc1cc(OCCCc2c3n(c4c(-c5c(C)nn(C)c5C)c(Cl)ccc24)[C@H](C)CN(c2cccc4c2cc(C(=O)O)n4CCN2CCCC2)C3=O)cc(C)c1Cl` [Example 369, (R)-4-(7-Chloro-10-(3-(4-chloro-3,5-dimethylphenoxy)propyl)-4-methyl-1-oxo-6-(1,3,5-trimethyl-1H-pyrazol-4-yl)-3,4-dihydropyrazino[1,2-a]indol-2(1H)-yl)-1-(2-(pyrrolidin-1-yl)ethyl)-1H-indole-2-carboxylic acid], the pKi was 8.49. Under `Cc1nn(C)c(C)c1-c1c(Cl)ccc2c(CCCOCC3CC3)c3n(c12)[C@H](C)CN(c1cn(C)c2ccc(C(=O)O)cc12)C3=O` [Example 404, (R)-3-(7-chloro-10-(3-(cyclopropylmethoxy)propyl)-4-methyl-1-oxo-6-(1,3,5-trimethyl-1H-pyrazol-4-yl)-3,4-dihydropyrazino[1,2-a]indol-2(1H)-yl)-1-methyl-1H-indole-5-carboxylic acid] stands 7.36; under `COCCCc1c2n(c3c(-c4c(C)nn(C)c4C)c(Cl)ccc13)[C@H](C)CN(c1cn(C)c3ccc(C(=O)O)cc13)C2=O` [Example 406, (R)-3-(7-Chloro-10-(3-methoxypropyl)-4-methyl-1-oxo-6-(1,3,5-trimethyl-1H-pyrazol-4-yl)-3,4-dihydropyrazino[1,2-a]indol-2(1H)-yl)-1-methyl-1H-indole-5-carboxylic acid], under 6.60; under `COc1ccc(N2C[C@@H](C)n3c(c(CCCOc4cc(C)c(Cl)c(C)c4)c4ccc(Cl)c(-c5c(C)nn(C)c5C)c43)C2=O)c2c1c(C)c(C(N)=O)n2C` [Example 411, (R)-7-(7-Chloro-10-(3-(4-chloro-3,5-dimethylphenoxy)propyl)-4-methyl-1-oxo-6-(1,3,5-trimethyl-1H-pyrazol-4-yl)-3,4-dihydropyrazino[1,2-a]indol-2(1H)-yl)-4-methoxy-1,3-dimethyl-1H-indole-2-carboxamide], 8.25.
